In patent US20040242904A1, “Novel sordarin derivative isolated from culture fermentations and functions as an antifungal agent” (priority 2001, published 2004):
Values after ≈ are worked out from the molar mass of the structure shown. Where two headings read alike, the source gives them in different places.

Legend:
[1] = test system: C. neoformans in vitro translation; assay: In vitro translation assay, C. neoformans; type: biochemical; details: average of three independent experiments
Protocol: (§1) In vitro translation assays were performed as described in Shastry, et al. Microbiology, 2001, 147(2):383-90. The IC50 values are the average of three independent experiments. The lower limit of sensitivity is about 0.005 μg/ml.

[2] = molecular target: Human/SIII (S. cerevisiae strain expressing human eEF2) (UniProt P13639, cells depend on it, species not given); assay: SwordIII growth inhibition assay, Human/SIII strain; type: cell-based
Description: (§2) Sordarin and its derivatives bind to the eEF2-ribosome-nucleotide complex in sensitive fungi. Through different in vitro assays using purified components from human, yeast and plant cells, it has been shown that the selective sensitivity to sordarin and its derivatives is dependent on fungal eEF2. The fungal specificity of the sordarin makes eEF2 an attractive anti-infective target. (J Biol Chem. 1998, Feb 6; 273(6):3148-51).
(§3) Specifically, natural products are screened which show a differential activity between the human control and the other strains, although a 100% differential is not required in the initial discovery effort. It may be possible to observe hits solely against the fungal eEF2s, and/or the protozoal eEF2s. In sum, SWORDIII is designed to identify inhibitors of fungal and protozoal eEF2s to provide opportunities for developing anti-infective agents with a unique and selective mechanism of action.
(§4) For this reason, the eEF2 encoding genes from different organisms and several species of pathogenic fungi have been cloned, characterized and expressed in S. cerevisiae at Merck Research Laboratory, as previously described (Microbiology 147:383-90, 2001). Site directed mutagenesis of the C. parapsilosis gene encoding eEF2 to create S521Y, N523S single mutants and the S521Y, N523S double mutant was accomplished by the PCR overlap extension technique (Gene 77:51-59, 1989). […]

[3] = molecular target: C. lusitaniae/SIII (S. cerevisiae strain expressing C. lusitaniae eEF2) (Clavispora lusitaniae, UniProt C4YCF8); assay: SwordIII growth inhibition assay, C. lusitaniae/SIII strain; type: cell-based
Description: as §2, §3, §4

[4] = test system: C. glabrata in vitro translation; assay: In vitro translation assay, C. glabrata; type: biochemical; details: average of three independent experiments
Protocol: as §1

[5] = test system: C. guilliermondi in vitro translation; assay: In vitro translation assay, C. guilliermondi; type: biochemical; details: average of three independent experiments, lower limit of sensitivity about 0.005 μg/ml
Protocol: as §1

[6] = test system: C. krusei in vitro translation; assay: In vitro translation assay, C. krusei; type: biochemical; details: average of three independent experiments
Protocol: as §1

[7] = molecular target: C. neoformans/SIII (S. cerevisiae strain expressing C. neoformans eEF2) (Cryptococcus neoformans, UniProt Q9HFZ8); assay: SwordIII growth inhibition assay, C. neoformans/SIII strain; type: cell-based
Description: as §2, §3, §4

[8] = test system: C. parapsilosis in vitro translation; assay: In vitro translation assay, C. parapsilosis; type: biochemical; details: average of three independent experiments
Protocol: as §1

[9] = molecular target: A. fumigatus/SIII (S. cerevisiae strain expressing A. fumigatus eEF2) (Aspergillus fumigatus, UniProt Q4X0G7); assay: SwordIII growth inhibition assay, A. fumigatus/SIII strain; type: cell-based
Description: as §2, §3, §4

[10] = molecular target: T1, C. glabrata/SIII (S. cerevisiae strain expressing C. glabrata eEF2) (Candida glabrata, UniProt Q6FYA7); assay: SwordIII growth inhibition assay, C. glabrata/SIII strain; type: cell-based
T1 construct: S. cerevisiae strains expressing full length heterologous eEF2s; expressed in transfected cells; host or cells: S. cerevisiae Δeft1 Δeft2 deletion strain YEFD12h
Description: as §2, §3, §4

[11] = test system: S. cerevisiae in vitro translation; assay: In vitro translation assay, S. cerevisiae; type: biochemical; details: average of three independent experiments, lower limit of sensitivity about 0.005 μg/ml
Protocol: as §1

[12] = test system: C. lusitaniae in vitro translation; assay: In vitro translation assay, C. lusitaniae; type: biochemical; details: average of three independent experiments
Protocol: as §1

[13] = test system: C. albicans in vitro translation; assay: In vitro translation assay, C. albicans; type: biochemical; details: average of three independent experiments, lower limit of sensitivity about 0.005 μg/ml
Protocol: as §1

[14] = molecular target: C. krusei/SIII (S. cerevisiae strain expressing C. krusei eEF2) (Pichia kudriavzevii, UniProt A0A2U9R6P9); assay: SwordIII growth inhibition assay, C. krusei/SIII strain; type: cell-based
Description: as §2, §3, §4

[15] = test system: A. nidulans in vitro translation; assay: In vitro translation assay, A. nidulans; type: biochemical; details: average of three independent experiments
Protocol: as §1

[16] = molecular target: T2, S. cerevisiae/SIII (S. cerevisiae strain, S. cerevisiae eEF2) (Saccharomyces cerevisiae, UniProt P32324); assay: SwordIII growth inhibition assay, S. cerevisiae/SIII strain; type: cell-based
T2 construct: expressed in transfected cells; host or cells: S. cerevisiae Δeft1 Δeft2 deletion strain YEFD12h
Description: as §2, §3, §4

[17] = molecular target: E. tenella/SIII (S. cerevisiae strain expressing E. tenella eEF2) (Eimeria tenella, UniProt A0A184W4F4); assay: SwordIII growth inhibition assay, E. tenella/SIII strain; type: cell-based
Description: as §2, §3, §4

[18] = read-out: IC50 (μg/ml), SC medium, 29° C., approximately 16 hours
[19] = SC medium, 29° C., approximately 16 hours, read-out: IC50 (μg/ml)

A. fumigatus/SIII (S. cerevisiae strain expressing A. fumigatus eEF2), sequence (Q4X0G7 1-839, change not shown): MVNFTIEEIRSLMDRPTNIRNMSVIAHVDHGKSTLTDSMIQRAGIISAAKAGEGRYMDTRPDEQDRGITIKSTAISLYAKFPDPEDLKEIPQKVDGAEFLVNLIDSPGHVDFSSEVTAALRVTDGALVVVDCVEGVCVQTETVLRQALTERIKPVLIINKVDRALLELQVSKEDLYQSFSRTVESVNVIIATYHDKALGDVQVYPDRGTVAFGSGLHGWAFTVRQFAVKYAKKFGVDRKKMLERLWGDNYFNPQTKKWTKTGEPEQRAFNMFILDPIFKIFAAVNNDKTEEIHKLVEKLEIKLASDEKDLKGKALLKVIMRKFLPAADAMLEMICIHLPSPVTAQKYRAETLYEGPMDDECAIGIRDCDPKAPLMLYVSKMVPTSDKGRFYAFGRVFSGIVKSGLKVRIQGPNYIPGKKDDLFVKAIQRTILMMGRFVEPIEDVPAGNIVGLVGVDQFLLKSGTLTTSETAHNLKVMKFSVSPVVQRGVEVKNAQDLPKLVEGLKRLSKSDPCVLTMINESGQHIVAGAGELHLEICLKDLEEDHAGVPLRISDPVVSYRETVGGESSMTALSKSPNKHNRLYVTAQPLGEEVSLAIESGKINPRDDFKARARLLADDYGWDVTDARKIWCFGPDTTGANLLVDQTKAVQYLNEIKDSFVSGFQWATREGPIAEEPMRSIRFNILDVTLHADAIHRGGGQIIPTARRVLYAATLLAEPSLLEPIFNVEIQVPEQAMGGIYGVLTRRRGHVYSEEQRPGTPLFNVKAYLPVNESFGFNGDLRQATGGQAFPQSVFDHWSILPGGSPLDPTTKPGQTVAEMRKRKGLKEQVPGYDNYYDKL
E. tenella/SIII (S. cerevisiae strain expressing E. tenella eEF2), sequence (A0A184W4F4 1-832, change not shown): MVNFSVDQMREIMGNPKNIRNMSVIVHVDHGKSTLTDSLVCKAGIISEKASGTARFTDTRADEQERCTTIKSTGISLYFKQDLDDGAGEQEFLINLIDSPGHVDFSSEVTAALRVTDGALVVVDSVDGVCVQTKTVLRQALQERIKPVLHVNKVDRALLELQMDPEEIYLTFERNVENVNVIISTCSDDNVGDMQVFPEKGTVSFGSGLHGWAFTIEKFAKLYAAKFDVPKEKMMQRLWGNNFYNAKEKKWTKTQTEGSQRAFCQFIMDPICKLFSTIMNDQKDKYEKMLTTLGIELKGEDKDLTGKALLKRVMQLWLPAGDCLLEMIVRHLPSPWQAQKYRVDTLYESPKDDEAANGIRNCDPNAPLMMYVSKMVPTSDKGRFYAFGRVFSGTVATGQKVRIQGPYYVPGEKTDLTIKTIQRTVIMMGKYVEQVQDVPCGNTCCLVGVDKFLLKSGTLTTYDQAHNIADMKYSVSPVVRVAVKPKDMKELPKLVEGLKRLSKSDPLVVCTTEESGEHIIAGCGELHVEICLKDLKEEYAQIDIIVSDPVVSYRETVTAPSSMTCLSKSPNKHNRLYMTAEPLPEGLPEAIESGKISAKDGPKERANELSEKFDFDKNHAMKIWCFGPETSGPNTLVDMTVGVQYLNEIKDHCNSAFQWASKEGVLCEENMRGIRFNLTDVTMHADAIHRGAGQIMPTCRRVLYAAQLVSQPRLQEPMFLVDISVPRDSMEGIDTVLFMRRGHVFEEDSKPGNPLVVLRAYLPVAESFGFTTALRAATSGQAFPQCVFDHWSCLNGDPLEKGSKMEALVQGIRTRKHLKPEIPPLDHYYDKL
C. lusitaniae/SIII (S. cerevisiae strain expressing C. lusitaniae eEF2), sequence (C4YCF8 1-830, change not shown): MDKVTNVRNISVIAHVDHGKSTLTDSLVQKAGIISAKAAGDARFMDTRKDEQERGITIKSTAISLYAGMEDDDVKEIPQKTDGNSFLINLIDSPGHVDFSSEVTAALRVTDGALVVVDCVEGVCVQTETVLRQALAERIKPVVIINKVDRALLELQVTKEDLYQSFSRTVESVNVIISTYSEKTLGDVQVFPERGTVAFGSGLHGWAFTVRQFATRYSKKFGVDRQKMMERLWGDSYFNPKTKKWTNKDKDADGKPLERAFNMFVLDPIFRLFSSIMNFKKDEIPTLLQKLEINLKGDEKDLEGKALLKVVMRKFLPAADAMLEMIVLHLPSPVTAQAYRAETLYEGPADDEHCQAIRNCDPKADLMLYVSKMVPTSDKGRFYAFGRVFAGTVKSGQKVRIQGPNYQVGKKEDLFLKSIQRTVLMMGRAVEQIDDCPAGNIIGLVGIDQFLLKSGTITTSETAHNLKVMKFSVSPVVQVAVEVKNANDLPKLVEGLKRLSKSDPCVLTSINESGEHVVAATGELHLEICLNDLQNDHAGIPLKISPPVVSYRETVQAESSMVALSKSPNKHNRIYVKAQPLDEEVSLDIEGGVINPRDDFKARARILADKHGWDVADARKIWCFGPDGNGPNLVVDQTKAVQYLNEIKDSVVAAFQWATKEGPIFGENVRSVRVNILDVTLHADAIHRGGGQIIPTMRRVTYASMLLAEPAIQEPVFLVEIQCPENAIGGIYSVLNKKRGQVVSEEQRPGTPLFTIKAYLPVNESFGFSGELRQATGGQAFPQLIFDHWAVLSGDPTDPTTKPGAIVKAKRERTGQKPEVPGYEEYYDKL
T2 sequence (P32324 whole entry): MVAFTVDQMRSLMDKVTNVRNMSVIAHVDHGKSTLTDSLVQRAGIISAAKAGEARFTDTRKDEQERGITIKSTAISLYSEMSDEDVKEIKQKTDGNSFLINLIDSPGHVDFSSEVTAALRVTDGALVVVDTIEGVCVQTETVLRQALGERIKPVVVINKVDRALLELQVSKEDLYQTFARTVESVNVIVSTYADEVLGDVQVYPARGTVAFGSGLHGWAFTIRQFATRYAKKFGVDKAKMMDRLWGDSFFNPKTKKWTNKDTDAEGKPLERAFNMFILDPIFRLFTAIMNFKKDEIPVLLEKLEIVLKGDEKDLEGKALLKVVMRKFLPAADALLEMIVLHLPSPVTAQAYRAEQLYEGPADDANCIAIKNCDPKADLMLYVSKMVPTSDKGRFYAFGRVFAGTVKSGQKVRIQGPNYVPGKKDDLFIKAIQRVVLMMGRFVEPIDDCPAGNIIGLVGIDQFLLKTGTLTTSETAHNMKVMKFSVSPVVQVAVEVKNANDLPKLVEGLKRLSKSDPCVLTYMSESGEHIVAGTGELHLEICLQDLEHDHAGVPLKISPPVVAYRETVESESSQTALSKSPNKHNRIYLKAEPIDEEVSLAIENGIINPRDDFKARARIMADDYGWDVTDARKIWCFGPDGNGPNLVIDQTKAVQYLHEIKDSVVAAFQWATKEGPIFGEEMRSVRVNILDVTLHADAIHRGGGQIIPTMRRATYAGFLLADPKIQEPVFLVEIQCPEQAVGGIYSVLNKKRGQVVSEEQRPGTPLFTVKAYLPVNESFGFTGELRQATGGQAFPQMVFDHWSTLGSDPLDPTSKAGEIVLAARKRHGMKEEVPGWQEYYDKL
C. neoformans/SIII (S. cerevisiae strain expressing C. neoformans eEF2), sequence (Q9HFZ8 1-838, change not shown): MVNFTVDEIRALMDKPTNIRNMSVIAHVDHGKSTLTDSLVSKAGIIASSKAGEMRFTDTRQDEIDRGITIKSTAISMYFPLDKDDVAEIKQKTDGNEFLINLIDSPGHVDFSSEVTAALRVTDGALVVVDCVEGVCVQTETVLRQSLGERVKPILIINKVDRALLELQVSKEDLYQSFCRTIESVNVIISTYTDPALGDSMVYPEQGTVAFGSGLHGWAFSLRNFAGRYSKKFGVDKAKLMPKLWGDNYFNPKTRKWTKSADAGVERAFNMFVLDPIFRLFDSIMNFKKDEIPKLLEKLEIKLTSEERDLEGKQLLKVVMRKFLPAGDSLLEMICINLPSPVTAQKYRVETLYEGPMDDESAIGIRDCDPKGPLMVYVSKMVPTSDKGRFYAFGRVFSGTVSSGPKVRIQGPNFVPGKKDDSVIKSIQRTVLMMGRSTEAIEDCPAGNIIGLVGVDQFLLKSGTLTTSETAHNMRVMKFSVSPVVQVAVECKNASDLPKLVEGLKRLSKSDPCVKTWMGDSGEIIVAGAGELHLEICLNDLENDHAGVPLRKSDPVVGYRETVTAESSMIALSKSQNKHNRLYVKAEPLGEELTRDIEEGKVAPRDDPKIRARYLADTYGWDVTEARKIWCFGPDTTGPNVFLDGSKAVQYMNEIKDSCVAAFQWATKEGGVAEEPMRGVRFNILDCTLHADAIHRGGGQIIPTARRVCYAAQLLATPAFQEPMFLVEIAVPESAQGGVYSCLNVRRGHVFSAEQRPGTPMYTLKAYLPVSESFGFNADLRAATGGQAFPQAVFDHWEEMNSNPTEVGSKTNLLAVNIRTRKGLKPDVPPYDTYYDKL
T1 sequence (Q6FYA7 whole entry): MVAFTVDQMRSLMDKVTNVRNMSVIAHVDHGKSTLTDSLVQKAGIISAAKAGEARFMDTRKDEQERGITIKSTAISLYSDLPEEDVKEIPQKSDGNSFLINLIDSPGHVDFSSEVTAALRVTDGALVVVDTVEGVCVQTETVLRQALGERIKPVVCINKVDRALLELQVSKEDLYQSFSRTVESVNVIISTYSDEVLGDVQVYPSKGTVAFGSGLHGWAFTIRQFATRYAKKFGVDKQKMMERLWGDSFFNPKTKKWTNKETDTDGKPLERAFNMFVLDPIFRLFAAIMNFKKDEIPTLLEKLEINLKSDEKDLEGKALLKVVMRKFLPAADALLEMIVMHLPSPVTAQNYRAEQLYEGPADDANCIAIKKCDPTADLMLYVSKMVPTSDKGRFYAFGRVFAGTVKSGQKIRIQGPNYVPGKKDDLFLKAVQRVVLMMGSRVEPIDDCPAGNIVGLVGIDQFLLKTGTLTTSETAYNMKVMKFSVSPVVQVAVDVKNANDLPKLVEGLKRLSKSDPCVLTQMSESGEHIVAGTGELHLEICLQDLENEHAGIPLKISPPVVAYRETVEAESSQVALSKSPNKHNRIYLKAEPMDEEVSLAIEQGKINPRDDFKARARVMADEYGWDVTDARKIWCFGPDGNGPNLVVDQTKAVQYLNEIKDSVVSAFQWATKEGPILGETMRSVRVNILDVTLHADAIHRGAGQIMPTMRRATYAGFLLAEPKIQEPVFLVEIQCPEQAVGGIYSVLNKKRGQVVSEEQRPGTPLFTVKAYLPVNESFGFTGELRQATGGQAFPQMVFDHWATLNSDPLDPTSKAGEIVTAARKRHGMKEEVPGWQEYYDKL

| SMILES | IC50 [1] | IC50 [4] | IC50 [5] | IC50 [6] | IC50 [8] | IC50 [10] | IC50 [11] | IC50 [12] | IC50 [13] | IC50 [15] | IC50 [16] | also measured |
| --- | --- | --- | --- | --- | --- | --- | --- | --- | --- | --- | --- | --- |
| COC1C(C)OC(OCC23CC4C(C)CCC4C4(C=O)CC2C=C(C(C)C)C43C(=O)O)C(O)C12OC(=O)C(CCCCCCCC(=O)O)O2 (stereo not shown) [The Compound of Formula I] | 0.02 µg/mL | 0.015 µg/mL | 0.006 µg/mL | 1 µg/mL | 0.5 µg/mL | 7.24 µM | 0.006 µg/mL | 0.5 µg/mL | 0.006 µg/mL | 0.6 µg/mL | 0.217 µM | GI50 [2, 18]: > 29 µM; IC50 [3, 18]: > 29 µM; IC50 [7, 18]: 7.24 µM; IC50 [9, 18]: 29 µM; IC50 [14, 18]: 21.7 µM; IC50 [17, 18]: > 29 µM |
| CO[C@H]1[C@@H](O)[C@H](O)[C@H](OC[C@@]23C[C@@H]4[C@H](C)CC[C@H]4[C@@]4(C=O)CC2C=C(C(C)C)[C@@]34C(=O)O)O[C@@H]1C [Sordarin] | 0.2 µg/mL (≈ 0.406 µM) | 0.036 µg/mL (≈ 0.0731 µM) | 0.01 µg/mL (≈ 0.0203 µM) | >100 µg/mL | >100 µg/mL | 12.7 µM | 0.006 µg/mL (≈ 0.0122 µM) | >100 µg/mL | 0.006 µg/mL (≈ 0.0122 µM) | 2.6 µg/mL (≈ 5.28 µM) | 0.386 µM | GI50 [2, 19]: > 203 µM; IC50 [3, 19]: > 203 µM; IC50 [7, 19]: > 203 µM; IC50 [9, 19]: > 203 µM; IC50 [14, 19]: > 203 µM; IC50 [17, 19]: > 203 µM |
